The results in this text go back to PubChem BioAssay (NCI).

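Each compound was tested at five concentrations against cells in 96-well plates for 48 hours. GI50 marks 50% less growth. At the TGI there is no net growth.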

Among the test systems are BT-549 breast; HCT-116 colon; HOP-92 NSCLC; MDA-MB-435; NCI-H226 lung; NCI/ADR-RES ovarian; OVCAR-4 ovarian; OVCAR-5 ovarian; OVCAR-8 ovarian; RPMI-8226 leukemia.
Holding throughout (test): NCI anticancer screen, dose series, 48 h

For `COc1cc(-n2cc(-c3ccc(F)cc3)[nH]c2=O)cc(OC)c1OC`, the GI50 with BT-549 breast was 83.4 µM; with HCT-116 colon, over 100 µM; in the assay with HOP-92 NSCLC, over 100 µM; with MDA-MB-435 it was over 100 µM; in the assay on NCI-H226 lung, over 100 µM; in the assay on NCI/ADR-RES ovarian, over 100 µM. For the same compound, the GI50 with OVCAR-4 ovarian, in the assay on OVCAR-5 ovarian, in the assay with OVCAR-8 ovarian and with RPMI-8226 leukemia was over 100 µM in each case. For the same compound, the TGI with BT-549 breast, in the assay with HCT-116 colon, with HOP-92 NSCLC, with MDA-MB-435, with NCI-H226 lung and in the assay on NCI/ADR-RES ovarian was over 100 µM in each case. Moreover, the TGI in the assay on OVCAR-4 ovarian, in the assay on OVCAR-5 ovarian, in the assay with OVCAR-8 ovarian and in the assay on RPMI-8226 leukemia was over 100 µM throughout.
As to `COc1cccc2c1C(=O)c1c(O)c3c(c(O)c1C2=O)C[C@](O)(C(=O)CO)C[C@H]3O[C@@H]1C[C@@H](NC(=O)CCCCCN(C)C2(c3ccc(F)cc3)CC3CCC2C3)[C@H](O)[C@@H](C)O1` (stereo not given in full), the GI50 with BT-549 breast is 5.3 µM; in the assay on HCT-116 colon it was 0.729 µM; in the assay with HOP-92 NSCLC it was 5.36 µM; with MDA-MB-435 it was 8.67 µM; in the assay with NCI-H226 lung it was 6.68 µM; in the assay on NCI/ADR-RES ovarian it was 13 µM. The GI50 in the assay with OVCAR-4 ovarian was 1.09 µM; with OVCAR-5 ovarian, 0.988 µM; in the assay on OVCAR-8 ovarian it was 1.18 µM; in the assay with RPMI-8226 leukemia, 0.899 µM. The TGI with BT-549 breast was determined as 14.2 µM; in the assay on HCT-116 colon, 1.51 µM; in the assay on HOP-92 NSCLC, 12.5 µM; in the assay on MDA-MB-435, 19.4 µM; in the assay on NCI-H226 lung, 16.9 µM; in the assay with NCI/ADR-RES ovarian, 50 µM. Further, the TGI with OVCAR-4 ovarian stood at 2.69 µM; with OVCAR-5 ovarian, 2.19 µM; in the assay on OVCAR-8 ovarian it was 3.94 µM; in the assay with RPMI-8226 leukemia it was 2.25 µM.
On to `Clc1ccc2[nH]cc(-c3nnnn3-c3ccccc3)c2c1`, for which the GI50 in the assay with BT-549 breast is 22.2 µM; in the assay with HCT-116 colon, 18.3 µM; with HOP-92 NSCLC, 27.5 µM; with MDA-MB-435, 1.64 µM; in the assay with NCI-H226 lung it was 74 µM; in the assay on NCI/ADR-RES ovarian, 7.61 µM. Besides, the GI50 is over 43.8 µM with OVCAR-4 ovarian, 21.8 µM in the assay on OVCAR-5 ovarian, 29.5 µM in the assay with OVCAR-8 ovarian and 14.5 µM with RPMI-8226 leukemia. For the same compound, the TGI is 68.9 µM in the assay on BT-549 breast; 57.5 µM in the assay on HCT-116 colon; over 100 µM in the assay with HOP-92 NSCLC; 4.16 µM with MDA-MB-435; over 100 µM with NCI-H226 lung; 41.8 µM with NCI/ADR-RES ovarian. For the same compound, the TGI was over 100 µM in the assay on OVCAR-4 ovarian, over 89.8 µM in the assay on OVCAR-5 ovarian, over 93.3 µM in the assay with OVCAR-8 ovarian and 43.3 µM in the assay on RPMI-8226 leukemia.
Consider `NCCNc1c2c(c(NCCN)c3[nH]ccc13)C(=O)c1ccccc1C2=O`, for which the GI50 is 1.22 µM in the assay with BT-549 breast; under 0.0261 µM with HCT-116 colon; 0.427 µM in the assay with HOP-92 NSCLC; 0.225 µM in the assay with MDA-MB-435; 0.198 µM with NCI-H226 lung; 13.3 µM with NCI/ADR-RES ovarian. In addition, the GI50 in the assay on OVCAR-4 ovarian is 0.296 µM; with OVCAR-5 ovarian it was 0.279 µM; in the assay on OVCAR-8 ovarian it was 0.151 µM; in the assay on RPMI-8226 leukemia, 0.278 µM. In addition, the TGI is 2.62 µM in the assay on BT-549 breast; 0.401 µM in the assay with HCT-116 colon; 4.21 µM with HOP-92 NSCLC; 0.692 µM with MDA-MB-435; 0.896 µM in the assay with NCI-H226 lung; 29.6 µM in the assay with NCI/ADR-RES ovarian. The TGI in the assay on OVCAR-4 ovarian amounted to 1.34 µM; in the assay with OVCAR-5 ovarian, 0.96 µM; with OVCAR-8 ovarian it was 0.612 µM; with RPMI-8226 leukemia it was 1.21 µM.
Consider `Nc1nc(/C=C\c2ccc([N+](=O)[O-])s2)nc(N2CCCC2)n1`, for which the GI50 in the assay on BT-549 breast was 7.17 µM; in the assay with HCT-116 colon, 1.1 µM; in the assay on HOP-92 NSCLC, 6.73 µM; in the assay on MDA-MB-435, 2.24 µM; in the assay on NCI-H226 lung, 3.32 µM; in the assay on NCI/ADR-RES ovarian, 4.51 µM. For the same compound, the GI50 in the assay on OVCAR-4 ovarian is 5 µM; in the assay with OVCAR-5 ovarian, 15.7 µM; in the assay with OVCAR-8 ovarian, 3.49 µM; with RPMI-8226 leukemia it was 1.26 µM. The TGI with BT-549 breast is 20.9 µM; in the assay with HCT-116 colon, 4.68 µM; in the assay on HOP-92 NSCLC, 18.6 µM; in the assay on MDA-MB-435 it was 8.09 µM; with NCI-H226 lung, 21.7 µM; with NCI/ADR-RES ovarian, 23.2 µM. In addition, the TGI in the assay on OVCAR-4 ovarian came to 14.1 µM; with OVCAR-5 ovarian it was 30.7 µM; in the assay on OVCAR-8 ovarian it was 22.5 µM; in the assay with RPMI-8226 leukemia, 4.39 µM.
`Cc1ccc(NC(=O)CC2CC2)cc1-c1ccc(C(=O)NCC2CC2)cc1`: the GI50 with BT-549 breast was over 25 µM; in the assay with HCT-116 colon, over 25 µM; in the assay with HOP-92 NSCLC, 8.45 µM; in the assay with MDA-MB-435, over 19.5 µM; in the assay with NCI-H226 lung it was over 25 µM; with NCI/ADR-RES ovarian it was over 25 µM. The GI50 in the assay with OVCAR-4 ovarian, in the assay on OVCAR-5 ovarian, in the assay on OVCAR-8 ovarian and in the assay with RPMI-8226 leukemia was over 25 µM each time. The TGI in the assay with BT-549 breast, with HCT-116 colon, in the assay on HOP-92 NSCLC, in the assay with MDA-MB-435, with NCI-H226 lung and with NCI/ADR-RES ovarian was over 25 µM each time. Further, the TGI with OVCAR-4 ovarian, in the assay with OVCAR-5 ovarian, in the assay with OVCAR-8 ovarian and with RPMI-8226 leukemia was over 25 µM in each case.
For the compound `O=C(CSc1nc2ccccc2nc1-c1ccccc1)Nc1ccc(F)cc1`, the GI50 was 24.6 µM with BT-549 breast; 14.1 µM in the assay on HCT-116 colon; 20.3 µM with HOP-92 NSCLC; over 100 µM in the assay with MDA-MB-435; over 100 µM in the assay on NCI-H226 lung; 29.9 µM with NCI/ADR-RES ovarian. Further, the GI50 is 1.96 µM in the assay with OVCAR-4 ovarian, over 100 µM with OVCAR-5 ovarian, 30 µM with OVCAR-8 ovarian and 58.5 µM with RPMI-8226 leukemia. In addition, the TGI with BT-549 breast was 66.5 µM; with HCT-116 colon it was 28.7 µM; in the assay with HOP-92 NSCLC it was 58.1 µM; in the assay on MDA-MB-435 it was over 100 µM; in the assay with NCI-H226 lung, over 100 µM; in the assay with NCI/ADR-RES ovarian, over 100 µM. The TGI in the assay on OVCAR-4 ovarian was 15.7 µM; in the assay with OVCAR-5 ovarian, over 100 µM; with OVCAR-8 ovarian it was over 100 µM; in the assay on RPMI-8226 leukemia, over 100 µM.
As to `CCOC(=O)C(Cc1ccc(CCCC(=O)NCCC(=O)Nc2ccc3nc(C)sc3c2)cc1)C(=O)OCC`, the GI50 with BT-549 breast is 23.7 µM; with HCT-116 colon it was 45.8 µM; in the assay with HOP-92 NSCLC, 55.6 µM; in the assay with MDA-MB-435, 26 µM; in the assay on NCI-H226 lung, 36.1 µM; with NCI/ADR-RES ovarian, 24.6 µM. Moreover, the GI50 was 38.1 µM with OVCAR-4 ovarian, over 100 µM with OVCAR-5 ovarian, 20.1 µM with OVCAR-8 ovarian and 21.1 µM in the assay on RPMI-8226 leukemia. The TGI in the assay with BT-549 breast was 72.8 µM; in the assay on HCT-116 colon, over 100 µM; with HOP-92 NSCLC, over 100 µM; with MDA-MB-435, 76.5 µM; in the assay with NCI-H226 lung, over 100 µM; with NCI/ADR-RES ovarian, 69.1 µM. For the same compound, the TGI with OVCAR-4 ovarian is over 100 µM; with OVCAR-5 ovarian, over 100 µM; with OVCAR-8 ovarian, 42.1 µM; in the assay with RPMI-8226 leukemia, 53.4 µM.
For `CNCC#Cc1c(F)ccc2c1/C(=C/c1[nH]ccc1OC)C(=O)N2`, the GI50 is 0.338 µM in the assay on BT-549 breast; 0.0827 µM with HCT-116 colon; 0.669 µM with HOP-92 NSCLC; 0.156 µM with MDA-MB-435; 0.211 µM with NCI-H226 lung; 0.363 µM with NCI/ADR-RES ovarian. In addition, the GI50 in the assay on OVCAR-4 ovarian was 0.495 µM; with OVCAR-5 ovarian it was 0.323 µM; with OVCAR-8 ovarian it was 0.161 µM; with RPMI-8226 leukemia, 0.322 µM. Further, the TGI came to 1.54 µM in the assay on BT-549 breast; 3.1 µM in the assay on HCT-116 colon; 1.96 µM in the assay on HOP-92 NSCLC; 1.41 µM in the assay on MDA-MB-435; 1.36 µM with NCI-H226 lung; 3.27 µM in the assay with NCI/ADR-RES ovarian. In addition, the TGI was found to be 3.2 µM with OVCAR-4 ovarian, 3.16 µM with OVCAR-5 ovarian, 3.22 µM in the assay with OVCAR-8 ovarian and 1.47 µM with RPMI-8226 leukemia.
For the compound `CN(C)CC[PH+](c1ccccc1)c1ccccc1.CN(C)CC[PH+](c1ccccc1)c1ccccc1.[Cl-].[Pd+2]`, the GI50 in the assay with BT-549 breast, in the assay on HCT-116 colon, in the assay on HOP-92 NSCLC, in the assay with MDA-MB-435, in the assay with NCI-H226 lung and in the assay on NCI/ADR-RES ovarian was over 100 µM each time. Also, the GI50 in the assay with OVCAR-4 ovarian was over 100 µM; in the assay on OVCAR-5 ovarian, over 100 µM; in the assay on OVCAR-8 ovarian it was over 100 µM; with RPMI-8226 leukemia, 99.8 µM. Also, the TGI in the assay on BT-549 breast, in the assay with HCT-116 colon, in the assay on HOP-92 NSCLC, in the assay with MDA-MB-435, in the assay on NCI-H226 lung and in the assay on NCI/ADR-RES ovarian was over 100 µM in each case. Moreover, the TGI in the assay on OVCAR-4 ovarian, in the assay on OVCAR-5 ovarian, with OVCAR-8 ovarian and in the assay with RPMI-8226 leukemia was over 100 µM in each case.
